Each compound was assayed against T1, VLA-4 (Homo sapiens, UniProt P05556+P13612) (assay: Adhesion of Jurkat cells to immobilized VCAM-1 (domains 1-3)). Details: adhesion of CFSE-labeled Jurkat cells to recombinant human VCAM-1 (domains 1-3) coated plates; compounds as yielded by solid phase synthesis, purity about 40-90%.
T1 construct: host or cells: Jurkat clone E6-1
Type: cell-based
Design: scale not given here
Outline: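 CFSE-labelled Jurkat E6-1 cells in Tris buffer pH 7.4 with 2 mM MnCl2 were added to wells coated with insect-cell-expressed human VCAM-1 domains 1-3 (0.5 μg/ml coating solution); labelled cells were incubated for 30 min at 37 °C with the VLA-4 inhibitor.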

T1 sequence (P13612 34-1032): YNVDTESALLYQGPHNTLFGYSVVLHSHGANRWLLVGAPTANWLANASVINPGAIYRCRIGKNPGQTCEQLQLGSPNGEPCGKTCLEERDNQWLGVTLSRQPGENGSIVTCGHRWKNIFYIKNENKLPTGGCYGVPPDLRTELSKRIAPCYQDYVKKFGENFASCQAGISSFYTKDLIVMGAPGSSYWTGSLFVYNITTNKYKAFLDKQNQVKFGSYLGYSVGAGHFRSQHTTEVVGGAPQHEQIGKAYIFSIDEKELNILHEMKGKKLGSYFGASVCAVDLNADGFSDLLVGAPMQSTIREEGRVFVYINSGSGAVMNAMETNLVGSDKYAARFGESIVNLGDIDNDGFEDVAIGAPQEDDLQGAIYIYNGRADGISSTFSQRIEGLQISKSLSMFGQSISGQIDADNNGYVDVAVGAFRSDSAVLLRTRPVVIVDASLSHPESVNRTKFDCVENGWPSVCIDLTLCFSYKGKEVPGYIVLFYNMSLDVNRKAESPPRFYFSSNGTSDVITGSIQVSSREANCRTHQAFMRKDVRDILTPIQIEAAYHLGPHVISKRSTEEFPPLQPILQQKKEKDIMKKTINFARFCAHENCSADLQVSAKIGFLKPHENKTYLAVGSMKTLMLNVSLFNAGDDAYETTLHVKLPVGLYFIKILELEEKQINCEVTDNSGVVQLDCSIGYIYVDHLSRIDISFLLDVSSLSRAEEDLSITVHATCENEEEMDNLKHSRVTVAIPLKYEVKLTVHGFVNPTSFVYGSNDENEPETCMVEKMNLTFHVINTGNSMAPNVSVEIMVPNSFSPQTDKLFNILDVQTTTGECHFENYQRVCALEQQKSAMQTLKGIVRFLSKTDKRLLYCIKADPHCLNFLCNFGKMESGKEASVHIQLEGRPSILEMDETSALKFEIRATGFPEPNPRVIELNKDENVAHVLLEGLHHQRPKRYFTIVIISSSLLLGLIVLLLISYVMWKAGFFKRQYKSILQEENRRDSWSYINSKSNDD
T1 sequence (P05556 21-798): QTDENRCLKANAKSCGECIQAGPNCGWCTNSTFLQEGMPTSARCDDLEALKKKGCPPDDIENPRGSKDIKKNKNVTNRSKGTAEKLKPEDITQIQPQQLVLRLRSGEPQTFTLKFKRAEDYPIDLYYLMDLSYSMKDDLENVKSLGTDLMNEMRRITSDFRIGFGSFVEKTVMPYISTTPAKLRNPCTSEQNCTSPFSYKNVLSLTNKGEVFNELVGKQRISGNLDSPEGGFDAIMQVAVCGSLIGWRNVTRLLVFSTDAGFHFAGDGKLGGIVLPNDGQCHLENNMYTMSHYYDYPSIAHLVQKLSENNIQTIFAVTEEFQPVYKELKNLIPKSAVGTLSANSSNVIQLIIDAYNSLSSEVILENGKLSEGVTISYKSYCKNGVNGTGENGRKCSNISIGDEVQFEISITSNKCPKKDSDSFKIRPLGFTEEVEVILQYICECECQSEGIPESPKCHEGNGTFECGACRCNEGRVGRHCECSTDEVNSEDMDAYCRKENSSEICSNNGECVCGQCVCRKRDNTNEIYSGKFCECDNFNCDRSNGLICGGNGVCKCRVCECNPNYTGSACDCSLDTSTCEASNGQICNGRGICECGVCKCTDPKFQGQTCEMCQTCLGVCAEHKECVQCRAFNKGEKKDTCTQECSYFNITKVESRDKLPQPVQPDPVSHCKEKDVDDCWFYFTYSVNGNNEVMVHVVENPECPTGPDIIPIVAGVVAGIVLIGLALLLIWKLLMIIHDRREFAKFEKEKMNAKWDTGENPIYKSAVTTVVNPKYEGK

IC50 | Structure (SMILES)
B-C | COc1ccccc1-c1ccc(C[C@H](NC(=O)C2CCCN(c3ncnc(NC4Cc5ccccc5C4)c3F)C2)C(=O)O)cc1 (stereo partly shown) [Example 2.56]
C-D | O=C(N[C@@H](Cc1ccc(-c2cc(Cl)ccc2Cl)cc1)C(=O)O)C1CCCN(c2ncnc(N3CCCCC3)c2F)C1 (stereo partly shown) [Example 2.35]
C-D | O=C(N[C@@H](Cc1ccc(-c2ccc(Cl)c(Cl)c2)cc1)C(=O)O)C1CCCN(c2ncnc(NC3Cc4ccccc4C3)c2F)C1 (stereo partly shown) [Example 2.48]
C-D | COc1ccc(-c2ccc(C[C@H](NC(=O)C3CCCN(c4ncnc(N5CCCCC5)c4F)C3)C(=O)O)cc2)cc1 (stereo partly shown) [Example 2.16]
C-D | O=C(N[C@@H](Cc1ccc(-c2ccc(Cl)c(Cl)c2)cc1)C(=O)O)C1CCCN(c2ncnc(N3CCCCC3)c2F)C1 (stereo partly shown) [Example 2.43]
C-D | Cc1ccccc1-c1ccc(C[C@H](NC(=O)C2CCCN(c3ncnc(N4CCNCC4)c3F)C2)C(=O)O)cc1 (stereo partly shown) [Example 2.29]
C-D | Cc1ccc(-c2ccc(C[C@H](NC(=O)C3CCCN(c4ncnc(N(C)Cc5ccccc5)c4F)C3)C(=O)O)cc2)cc1 (stereo partly shown) [Example 2.8]
C-D | O=C(N[C@@H](Cc1ccc(-c2cc(Cl)ccc2Cl)cc1)C(=O)O)C1CCCN(c2ncnc(NC3Cc4ccccc4C3)c2F)C1 (stereo partly shown) [Example 2.38]

Second part, the compound before the results:

Structure (SMILES) | IC50
O=C(N[C@@H](Cc1ccc(-c2ccc(Cl)cc2Cl)cc1)C(=O)O)C1CCCN(C(=O)C2CCCCC2)C1 (stereo partly shown) [Example 1.44] | C-D
Cc1ccc(-c2ccc(C[C@H](NC(=O)C3CCCN(C(=O)Cc4ccccc4)C3)C(=O)O)cc2)cc1 (stereo partly shown) [Example 1.17] | C-D
COc1ccc(-c2ccc(C[C@H](NC(=O)C3CCCN(C(=O)c4ccccc4OC)C3)C(=O)O)cc2)cc1 (stereo partly shown) [Example 1.27] | C-D
COc1ccc(-c2ccc(C[C@H](NC(=O)C3CCCN(C(=O)C4CCCCC4)C3)C(=O)O)cc2)cc1 (stereo partly shown) [Example 1.24] | C-D
COc1ccc(-c2ccc(C[C@H](NC(=O)C3CCCN(S(=O)(=O)c4cc(Cl)ccc4OC)C3)C(=O)O)cc2)cc1 (stereo partly shown) [Example 1.81] | C-D
Cc1ccccc1-c1ccc(C[C@H](NC(=O)C2CCCN(C(=O)Cc3ccccc3)C2)C(=O)O)cc1 (stereo partly shown) [Example 1.30] | C-D
CC1(C)C2CCC1(CS(=O)(=O)N1CCCC(C(=O)N[C@@H](Cc3ccc(-c4cc(Cl)ccc4Cl)cc3)C(=O)O)C1)C(=O)C2 (stereo partly shown) [Example 1.103] | C-D
COC(=O)c1ccccc1S(=O)(=O)N1CCCC(C(=O)N[C@@H](Cc2ccc(-c3ccc(OC)cc3)cc2)C(=O)O)C1 (stereo partly shown) [Example 1.77] | C-D
Cc1ccc(-c2ccc(C[C@H](NC(=O)C3CCCN(C(=O)c4cccc(Cl)c4)C3)C(=O)O)cc2)cc1 (stereo partly shown) [Example 1.18] | C-D
Cc1ccc(-c2ccc(C[C@H](NC(=O)C3CCCN(S(=O)(=O)CC45CCC(CC4=O)C5(C)C)C3)C(=O)O)cc2)cc1 (stereo partly shown) [Example 1.65] | C-D
Cc1ccccc1-c1ccc(C[C@H](NC(=O)C2CCCN(C(=O)C3CCCCC3)C2)C(=O)O)cc1 (stereo partly shown) [Example 1.34] | C-D
COc1ccc(-c2ccc(C[C@H](NC(=O)C3CCCN(S(=O)(=O)c4ccccc4C(F)(F)F)C3)C(=O)O)cc2)cc1 (stereo partly shown) [Example 1.80] | C-D
Cc1ccc(C(=O)N2CCCC(C(=O)N[C@@H](Cc3ccc(-c4ccccc4)cc3)C(=O)O)C2)cc1 (stereo partly shown) [Example 1.9] | C-D
COc1ccc(S(=O)(=O)N2CCCC(C(=O)N[C@@H](Cc3ccc(-c4ccc(C)cc4)cc3)C(=O)O)C2)cc1OC (stereo partly shown) [Example 1.70] | C-D
O=C(N[C@@H](Cc1ccc(-c2ccccc2)cc1)C(=O)O)C1CCCN(S(=O)(=O)c2ccc3ccccc3c2)C1 (stereo partly shown) [Example 1.58] | C-D
Cc1ccc(-c2ccc(C[C@H](NC(=O)C3CCCN(C(=O)C4CCCCC4)C3)C(=O)O)cc2)cc1 (stereo partly shown) [Example 1.21] | C-D
Cc1ccc(-c2ccc(C[C@H](NC(=O)C3CCCN(S(=O)(=O)c4ccc5ccccc5c4)C3)C(=O)O)cc2)cc1 (stereo partly shown) [Example 1.68] | C-D
COc1ccc(-c2ccc(C[C@H](NC(=O)C3CCCN(S(=O)(=O)CC45CCC(CC4=O)C5(C)C)C3)C(=O)O)cc2)cc1 (stereo partly shown) [Example 1.75] | C-D
Cc1cc(C)c(OC(=O)N2CCCC(C(=O)N[C@@H](Cc3ccc(-c4ccccc4)cc3)C(=O)O)C2)c(C)c1 (stereo partly shown) [Example 1.15] | C-D
O=C(N[C@@H](Cc1ccc(-c2cc(Cl)ccc2Cl)cc1)C(=O)O)C1CCCN(S(=O)(=O)c2c(Cl)cccc2Cl)C1 (stereo partly shown) [Example 1.107] | C-D
Cc1ccc(-c2ccc(C[C@H](NC(=O)C3CCCN(S(=O)(=O)c4ccccc4C(F)(F)F)C3)C(=O)O)cc2)cc1 (stereo partly shown) [Example 1.71] | C-D
CC1(C)C2CCC1(CS(=O)(=O)N1CCCC(C(=O)N[C@@H](Cc3ccc(-c4ccc(Cl)cc4Cl)cc3)C(=O)O)C1)C(=O)C2 (stereo partly shown) [Example 1.93] | C-D

Same assay, conditions: adhesion of CFSE-labeled Jurkat cells to recombinant human VCAM-1 (domains 1-3) coated plates; compounds as yielded by solid phase synthesis, purity about 40-90%; read-out: IC50

IC50 | Structure (SMILES)
2000 to 10000 nM | O=C(N[C@@H](Cc1ccc(NC(=O)N2CCOCC2)cc1)C(=O)O)C1CCCN(c2ncnc(N3CCCC3)c2F)C1 (stereo partly shown) [Example 5.9]
≤ 500 nM | O=C(N[C@@H](Cc1ccc(NC(=O)N2CCN(C(c3ccccc3)c3ccccc3)CC2)cc1)C(=O)O)C1CCCN(C(=O)Cc2cccs2)C1 (stereo partly shown) [Example 4.10]
≤ 500 nM | CN1CCN(C(=O)Nc2ccc(C[C@H](NC(=O)C3CCCN(c4ncnc(N)c4F)C3)C(=O)O)cc2)CC1 (stereo partly shown) [Example 5.34]
500 to 2000 nM | Cc1ccc(S(=O)(=O)N2CCCC(C(=O)N[C@@H](Cc3ccc(NC(=O)N4CCN(C(c5ccccc5)c5ccccc5)CC4)cc3)C(=O)O)C2)cc1 (stereo partly shown) [Example 4.35]
2000 to 10000 nM | O=C(N[C@@H](Cc1ccc(NC(=O)N2CCN(c3ccccc3)CC2)cc1)C(=O)O)C1CCCN(C(=O)c2ccc(OC(F)(F)F)cc2)C1 (stereo partly shown) [Example 4.8]
2000 to 10000 nM | CN1CCN(C(=O)Nc2ccc(C[C@H](NC(=O)C3CCCN(c4ncnc(NC5CCCC5)c4F)C3)C(=O)O)cc2)CC1 (stereo partly shown) [Example 5.24]
2000 to 10000 nM | COCCNc1ncnc(N2CCCC(C(=O)N[C@@H](Cc3ccc(NC(=O)N4CCc5ccccc5C4)cc3)C(=O)O)C2)c1F (stereo partly shown) [Example 5.16]
500 to 2000 nM | COc1ccc(Cl)cc1S(=O)(=O)N1CCCC(C(=O)N[C@@H](Cc2ccc(NC(=O)N3CCN(c4ccccc4)CC3)cc2)C(=O)O)C1 (stereo partly shown) [Example 4.38]
500 to 2000 nM | CS(=O)(=O)N1CCCC(C(=O)N[C@@H](Cc2ccc(NC(=O)N3CCN(C(c4ccccc4)c4ccccc4)CC3)cc2)C(=O)O)C1 (stereo partly shown) [Example 4.31]
2000 to 10000 nM | CCCNc1ncnc(N2CCCC(C(=O)N[C@@H](Cc3ccc(-c4ccccc4C)cc3)C(=O)O)C2)c1F (stereo partly shown) [Example 2.30]
500 to 2000 nM | COc1ccccc1-c1ccc(C[C@H](NC(=O)C2CCCN(c3ncnc(N)c3F)C2)C(=O)O)cc1 (stereo partly shown) [Example 5.4]
500 to 2000 nM | O=C(N[C@@H](Cc1ccc(NC(=O)N2CCOCC2)cc1)C(=O)O)C1CCCN(c2ncnc(NCc3cccnc3)c2F)C1 (stereo partly shown) [Example 5.28]
500 to 2000 nM | O=C(N[C@@H](Cc1ccc(NC(=O)N2CCN(c3ccccc3)CC2)cc1)C(=O)O)C1CCCN(c2ncnc(N3CCSCC3)c2F)C1 (stereo partly shown) [Example 5.17]
2000 to 10000 nM | CN(C)CCNc1ncnc(N2CCCC(C(=O)N[C@H](Cc3ccc(NC(=O)N4CCN(C)CC4)cc3)C(=O)O)C2)c1F (stereo partly shown) [Example 5.5]
≤ 500 nM | O=C(N[C@@H](Cc1ccc(NC(=O)N2CCCCC2)cc1)C(=O)O)C1CCCN(S(=O)(=O)c2ccc3ccccc3c2)C1 (stereo partly shown) [Example 4.41]
500 to 2000 nM | COc1ccccc1-c1ccc(C[C@H](NC(=O)C2CCCN(c3ncnc(NCc4ccccn4)c3F)C2)C(=O)O)cc1 (stereo partly shown) [Example 2.51]
500 to 2000 nM | O=C(N[C@@H](Cc1ccc(NC(=O)N2CCOCC2)cc1)C(=O)O)C1CCCN(C(=O)Nc2ccc(-c3ccccc3)cc2)C1 (stereo partly shown) [Example 4.59]
500 to 2000 nM | CN1CCN(C(=O)Nc2ccc(C[C@H](NC(=O)C3CCCN(c4ncnc(NCC(c5ccccc5)c5ccccc5)c4F)C3)C(=O)O)cc2)CC1 (stereo partly shown) [Example 5.18]
≤ 500 nM | O=C(N[C@@H](Cc1ccc(NC(=O)N2CCOCC2)cc1)C(=O)O)C1CCCN(C(=O)c2ccccc2F)C1 (stereo partly shown) [Example 4.49]
500 to 2000 nM | COc1ccccc1NC(=O)N1CCCC(C(=O)N[C@@H](Cc2ccc(NC(=O)N3CCCCC3)cc2)C(=O)O)C1 (stereo partly shown) [Example 4.54]
≤ 500 nM | CC(C)NC(=O)N1CCCC(C(=O)N[C@@H](Cc2ccc(NC(=O)N3CCOCC3)cc2)C(=O)O)C1 (stereo partly shown) [Example 4.52]
≤ 500 nM | O=C(N[C@@H](Cc1ccc(NC(=O)N2CCN(c3ccccc3)CC2)cc1)C(=O)O)C1CCCN(C(=O)Cc2cccs2)C1 (stereo partly shown) [Example 4.18]

More lines, now with the values behind:

Structure (SMILES) | IC50
Cc1ccc(S(=O)(=O)N2CCCC(C(=O)N[C@@H](Cc3ccc(-c4ccccc4C)cc3)C(=O)O)C2)cc1 (stereo partly shown) [Example 1.85] | 500 to 2000 nM
COc1ccc(OC(=O)N2CCCC(C(=O)N[C@@H](Cc3ccc(NC(=O)N4CCN(c5ccccc5)CC4)cc3)C(=O)O)C2)cc1 (stereo partly shown) [Example 4.19] | 2000 to 10000 nM
O=C(N[C@@H](Cc1ccc(-c2ccc(Cl)cc2Cl)cc1)C(=O)O)C1CCCN(C(=O)c2ccccc2Cl)C1 (stereo partly drawn) [Example 1.4, (2S)-2-({[1-(2-chlorobenzoyl)-3-piperidinyl]carbonyl}amino)-3-(2′,4′-dichloro[1,1′-biphenyl]-4-yl)propanoic acid] | 500 to 2000 nM
Cc1ccccc1-c1ccc(C[C@H](NC(=O)C2CCCN(S(=O)(=O)c3c(Cl)cccc3Cl)C2)C(=O)O)cc1 (stereo partly drawn) [Example 1.3, (2S)-2-[({1-[(2,6-dichlorophenyl)sulfonyl]-3-piperidinyl}carbonyl)amino]-3-(2′-methyl[1,1′-biphenyl]-4-yl)propanoic acid] | 500 to 2000 nM
O=C(N[C@@H](Cc1ccc(-c2ccc(Cl)cc2Cl)cc1)C(=O)O)C1CCCN(S(=O)(=O)c2c(Cl)cccc2Cl)C1 (stereo partly shown) [Example 1.97] | 2000 to 10000 nM
COc1ccccc1C(=O)N1CCCC(C(=O)N[C@@H](Cc2ccc(-c3ccc(Cl)cc3Cl)cc2)C(=O)O)C1 (stereo partly shown) [Example 1.46] | 2000 to 10000 nM

— US6794386B2, “β-amino acid compounds as integrin antagonists” (Bayer Aktiengesellschaft, priority 2000, dated 2004)
